Key:
HepG2 cells [1] = assay: Cell proliferation assay (CCK-8), HepG2; format: cell-based, human; conditions: for Inhibitory Ratio (%) HepG2: 50 μM; for IC50: Homo sapiens, HepG2, mean ± SD, at least three independent experiments
Procedure: (§1) The human HCC cell lines QGY-7703, SMMC-7721 and HepG2 and the liver cell line QSG-7701 were supplied by the Cell Resource Center, Institute of Life Sciences, Chinese Academy of Medical Science. QGY-7703, SMMC-7721 and QSG-7701 cells were cultured in 1640 medium (Gibco), and HepG2 cells were cultured in DMEM medium (Gibco) at 37 °C in moist air supplemented with 5% CO2. All media were supplemented with 10% fetal bovine serum (FBS) and 100 Units/mL of penicillin/streptomycin.
(§2) The cell viability assay was performed as previously reported using a Cell Counting Kit-8 (CCK-8; Dojindo, Kumamoto, Japan)[33][34]. The relative cell viability was presented as % inhibition and calculated using the following formula: […]

QGY-7703 cells = assay: Cell proliferation assay (CCK-8), QGY-7703; format: cell-based, human; conditions: for Inhibitory Ratio (%) QGY-7703: 50 μM; for IC50: Homo sapiens, QGY-7703, mean ± SD, at least three independent experiments
Procedure: as §1, §2

SMMC-7721 cells = assay: Cell proliferation assay (CCK-8), SMMC-7721; format: cell-based, human; conditions: Homo sapiens, SMMC-7721; mean ± SD, at least three independent experiments
Procedure: as §1, §2

QSG-7701 hepatocytes = assay: Cell proliferation assay (CCK-8), QSG-7701 hepatocytes; format: cell-based, human; conditions: Homo sapiens, QSG7701; nonmalignant hepatocytes; mean ± SD
Procedure: as §1, §2

HepG2 cells [2] = assay: Apoptosis assay, Annexin V-FITC/PI flow cytometry; format: cell-based, human; conditions: 48 h
Procedure: To further explore the potential mechanisms of the antiproliferative effects induced by compound 7 and ISJ, Annexin V-FITC/PI double staining was performed to quantify cellular apoptosis by flow cytometry. HepG2 cells were cultured for 48 h in the absence or presence of compound 7 or ISJ at different concentrations (5 or 15 μM).
HepG2 cells were seeded in six-well plates (5 × 10^5 cells/mL) for 24 h and then treated with various amounts of the compounds or 1% DMSO (as control). After 48 h, the cells floating in the medium were collected, and the adherent cells were detached with 0.05% trypsin, washed twice with cold PBS, and centrifuged at 1000 rpm for 5 min at 4 °C. Subsequently, HepG2 cells were gently resuspended in the binding buffer. Thereafter, the cells were stained using the Annexin V-FITC/PI apoptosis detection kit (BD Biosciences, San Jose, CA, USA). After incubation at room temperature for 15 min in the dark, the apoptotic cells were immediately analyzed by flow cytometry (FACS Calibur).

HepG2 cells [3] = assay: Wound healing (migration) assay; format: cell-based, human; conditions: 10 μM, 24 h
Procedure: (§3) Cell migration and invasion potencies were studied using wound healing and Matrigel invasion assays. The wound healing assay was performed by scratching the cell surface with a 10 μL pipette tip. Then, the cells were treated with compound 7 and ISJ (10 μM) and incubated for 24 h before being photographed under a microscope (DMI3000 B, Leica). Wound closure was evaluated using ImageJ software. Invasion through a Matrigel-coated filter was measured in transwell chambers (Corning Costa) as described previously, with minor modifications. Briefly, HepG2 Cells (2 × 10^5/well) were suspended in serum-free medium and added to the upper chamber of the Matrigel plate. FBS (10%) was used as the chemoattractant in the lower chamber. After incubation for 24 h, the non-invading cells were removed from the upper surface of the insert membrane with a cotton swab. The invading cells were fixed with methanol and stained with Giemsa (Sigma). Cells in five randomly selected fields were photographed, and the numbers of cells that crossed the membrane were counted.

HepG2 cells [4] = assay: Matrigel invasion assay; format: cell-based, human; conditions: Homo sapiens, HepG2, 24 h, read-out: inhibition of invasiveness compared to control
Procedure: as §3

PKC = PKC activity assay (PepTag non-radioactive, HepG2 lysates); format: biochemical, human; conditions: 3 h
Procedure: The activity of PKC in HepG2 cells was assessed 3 h after the addition of compound 7 or ISJ by measuring the phosphorylation of a PKC-specific target peptide. Compared to the basal control (in the absence of any compound), PKC activity was inhibited by compound 7 and ISJ.
Figure 3 Effects of compound 7 and ISJ on PKC activity in HepG2 cells. The proteins from lysed HepG2 cells were prepared and measured for their ability to phosphorylate a PKC-specific peptide substrate (PLSRTLSVAAK) in a non-radioactive assay. (a) Lanes 1 and 2 show the negative (water only) and positive controls (with 20 ng purified PKC). Supernatants from HepG2 cells were subjected to the PKC activity assay in the absence (basal control, lane 3) or presence (lanes 4–7) of the compounds. Compound 7 (lanes 4 and 5) and ISJ (lanes 6 and 7) were added separately at 10 and 5 μM. (b) Quantification of (a); *P < 0.05 versus the basal control. Data are shown as the mean ± SD of three independent experiments.
The PKC activity assay was carried out as previously reported, according to the instructions of the PepTag non-radioactive PKC assay kit (Promega)[60]. The bands were photographed using the Syngene GBOX-iCHEMI-XR system, and the phosphorylated bands were cut out for quantification measurement at 570 nm.

PKCζ = assay: Western blot of PKC isoform expression in cytosol and membrane; format: cell-based, human; conditions: HepG2, 24 h incubation
Procedure: To further determine whether compound 7 and ISJ represent potential candidates for selective PKC expression inhibitors against hepatoma, the expression of PKC isoforms in HepG2 cells was characterized by western blotting. After 24 h of incubation with GFX, GO, ISJ and compound 7 at the indicated concentrations, PKC proteins from the cytosol and membrane of HepG2 cells were evaluated. ISJ and compound 7 treatments reduced both the cytosol and cell membrane expression of PKCζ.
(§4) The total membrane and cytosolic proteins were extracted using a Membrane and Cytosol Protein Extraction Kit (Beyotime). Extracted proteins from cells or animal tissues were separated by SDS-PAGE and transferred to polyvinylidene difluoride (PVDF) membranes (Bio-Rad). The PVDF membranes were blocked with 5% nonfat milk and incubated with primary antibodies overnight, followed by incubation with a donkey anti-rabbit or anti-mouse secondary antibody (IRDye 800, LI-COR, Biosciences). The images were captured using the Odyssey Infrared Imaging System (LI-COR, Biosciences), according to the manufacturer's instructions. The intensity was quantitative with Quantity One software (Bio-Rad). To ensure equal protein loading, each membrane was stripped and reprobed with an anti-β-actin antibody. All experiments were repeated independently no less than three times.

HepG2 xenografts = assay: Antitumor activity in vivo, HepG2 xenograft; set-up: species or system BALB/c-nu nude mice; conditions: 5 mg/kg, tail vein injection every other day for two weeks
Procedure: Four-week-old male BALB/c-nu nude mice (15–20 g) were obtained from the Shanghai SLAC Laboratory Animal Co., Ltd. (Shanghai, China). The animals were maintained under specific pathogen-free conditions with food and water supplied ad libitum in the Laboratory Animal Center of the Second Military Medical University. All animal experiments were carried out in accordance with the Guide for the Care and Use of Laboratory Animals of the National Institutes of Health and were approved by the Committee on the Ethics of Animal Experiments of the Second Military Medical University, China.
(§5) HepG2 cells were harvested and resuspended in PBS. A total of 5 × 10^6 cells were subcutaneously injected into the right flank. Tumor volume was calculated using the following formula: V = (L × W^2)/2, where L is the length and W is the width of the tumor nodules measured with vernier calipers. Once the volume of the tumors reached 75–100 mm^3, the mice were randomly divided into three groups (n = 5). The mice were treated every other day for two weeks with tail vein injections of either vehicle (5% ethanol and 2.5% polyethylene glycol in saline), compound 7, or ISJ (5 mg/kg in the vehicle). Body weights were measured before each drug injection. After the 15th day, the mice were euthanized, and the tumors were isolated, weighed and photographed.

[5] = Body weight in xenograft study; format: in vivo, BALB/c-nu nude mice; conditions: 5 mg/kg, tail vein, two weeks
Procedure: as §5

[6] = test system: c-PARP, c-Cas3 and c-Cas9 in xenograft tumors; assay: Histology, IHC and immunoblot of xenograft tumors; format: in vivo, BALB/c-nu nude mice; conditions: 5 mg/kg
Procedure: as §4
To further confirm the antitumor activities of compound 7 and ISJ in vivo, histological analysis was performed on the hepatoma xenografts. Briefly, the samples were fixed in a 10% formalin solution, processed, embedded, sectioned and either H&E stained to reveal tumor tissue necrosis or IHC stained using antibodies against c-PARP, c-Cas3 or c-Cas9. The H&E and IHC images were obtained on a Leica DMI3000 B phase-contrast microscopy. The immunoreactive areas in the IHC images were quantified using ImagePro Plus 6.0 software (Media Cybernetics, Silver Spring, MD). The integrated optical density (IOD) values were represented as the mean ± SEM.

advanced HCC = test system: advanced HCC; set-up: method as in PMID 18650514; conditions: patients with advanced HCC; cited from earlier work

Row | SMILES | Inhibitory Ratio (%) HepG2 (HepG2 cells [1]) [%] | Inhibitory Ratio (%) QGY-7703 (QGY-7703 cells) [%] | further results
1 | C#CC(C)(C)Oc1cc(O)c2c(=O)c3ccc4c(c3oc2c1)OC(c1ccccc1)(c1ccccc1)O4 [compound 8] | 6.88 | −9.85 | –
2 | COc1ccc2c(=O)c3c(OC)cc(OC)c(/C=C/C(C)(C)O)c3oc2c1OC [compound 16] | 15.95 | 13.26 | –
3 | COc1cc(OC)c2c(=O)c3ccc(OC)c(OC)c3oc2c1 [compound 5] | 22.61 | 20.81 | melting point: 138 to 140 °C
4 | CCOC(=O)/C=C/c1c(OC)cc(OC)c2c(=O)c3ccc(OC)c(OC)c3oc12 [compound 13] | 47.29 | 16.17 | –
5 | O=c1c2ccc3c(c2oc2cc(O)cc(O)c12)OC(c1ccccc1)(c1ccccc1)O3 [compound 7, 7,9-dihydroxy-2,2-diphenyl-6H-[1,3]dioxolane[4,5-c]xanthen-6h-one] | 90.99 | 79.93 | IC50 (HepG2 cells [1]): 7.34 ± 0.09 µM; IC50 (QGY-7703 cells): 9.88 ± 0.18 µM; IC50 (SMMC-7721 cells): 6.35 ± 0.42 µM; IC50 (QSG-7701 hepatocytes): 53.51 ± 0.13 µM; number of apoptotic cells compared to the control group (HepG2 cells [2]; 5 μM): did not alter; percentage of apoptotic cells (HepG2 cells [2]; 15 μM): increased significantly; decrease of HepG2 cell migration compared to control (HepG2 cells [3]): 76.4%; inhibition at 10 µM (HepG2 cells [4]): 69%; inhibition of PKC activity compared to the basal control (PKC; 5 μM): 40.9%; inhibition of PKC activity compared to the basal control (PKC; 10 μM): 54.1%; PKCζ expression in cytosol and cell membrane (PKCζ): reduced; reduction of tumor weight compared to controls (HepG2 xenografts): 49.4%; change in body weight compared to vehicle-treated controls [5]: no significant change; H&E staining of xenograft tumors [6]: significant tissue death; IHC c-PARP, c-Cas3 and c-Cas9 levels in tumors [6]: upregulated expression; immunoblot c-PARP, c-Cas3 and c-Cas9 levels in tumor tissue [6]: increased
6 | CCOC(=O)[C@@H](O)[C@H](O)c1c(OC)cc(OC)c2c(=O)c3ccc(OC)c(OC)c3oc12 [compound 14] | 25.40 | 13.15 | –
7 | C#CC(C)(C)Oc1cc(OS(=O)(=O)c2ccc(C)cc2)c2c(=O)c3ccc4c(c3oc2c1)OC(c1ccccc1)(c1ccccc1)O4 [compound 9] | 12.46 | −3.98 | –
8 | Cc1ccc(S(=O)(=O)Oc2cc3c(c4oc5c(O)c(O)ccc5c(=O)c24)C=CC(C)(C)O3)cc1 [compound 11] | 45.36 | 21.44 | –
9 | O=c1c2ccc(O)c(O)c2oc2cc(O)cc(O)c12 [compound 6] | 13.80 | −0.66 | –
10 | COc1ccc2c(=O)c3c(OC)cc(OC)c(C=O)c3oc2c1OC [compound 12] | 26.12 | 20.97 | –
11 | CNC(=O)c1cc(Oc2ccc(NC(=O)Nc3ccc(Cl)c(C(F)(F)F)c3)cc2)ccn1 [sorafenib] | – | – | improvement of overall survival (advanced HCC): approximately three
12 | O=c1[nH]cc(F)c(=O)[nH]1 [5-Fu, 5-Fluorouracil, reference compound] | – | – | IC50 (HepG2 cells [1]): 12.48 ± 0.11 µM; IC50 (QGY-7703 cells): 15.66 ± 0.07 µM; IC50 (SMMC-7721 cells): 14.6 ± 0.36 µM; IC50 (QSG-7701 hepatocytes): 0.6 ± 0.03 µM
13 | Cc1ccc(S(=O)(=O)Oc2cc3c(c4oc5c6c(ccc5c(=O)c24)OC(c2ccccc2)(c2ccccc2)O6)C=CC(C)(C)O3)cc1 [compound 10] | 18.01 | 0.66 | –
14 | COc1ccc2c(=O)c3c(OC)cc(OC)c(I)c3oc2c1OC [compound 15] | 24.07 | −1.75 | –

From publication PMC4526861, “Inhibition of protein kinase C by isojacareubin suppresses hepatocellular carcinoma metastasis and induces apoptosis in vitro and in vivo” (Scientific Reports, 2015)
